Format in all cases: functional
Experiment [1] relates to HeLa. Nature of the experiment: Antitumor activity against human HeLa cell line by MTT assay. On the technique in general: Tetrazolium assays rely on reduction of a dye to a coloured formazan, in cell work by metabolically active cells.
Experiment [2] relates to PC-3. Nature of the experiment: Antitumor activity against human PC-3M-1E8 cell line by MTT assay.
In experiment [3] the test system is BGC-823. Nature of the experiment: Antitumor activity against human BGC823 cell line by SRB assay. For orientation: The SRB assay estimates cell density from bound dye.
Experiment [4] relates to MDA-MB-435. Nature of the experiment: Antitumor activity against human MDA-MB-435 cell line by SRB assay.
For experiment [5], the system named is HeLa. Nature of the experiment: Antitumor activity against human HeLa cell line by SRB assay.
For experiment [6], the system named is Bel-7402. Nature of the experiment: Antitumor activity against human Bel7402 cell line by SRB assay.
Experiment [7] deals with HL-60. Nature of the experiment: Antitumor activity against human HL60 cell line by SRB assay.
The test system of experiment [8] is Bel-7402. Nature of the experiment: Antitumor activity against human Bel7402 cell line by MTT assay.
For experiment [9], the system named is PC-3. Nature of the experiment: Antitumor activity against human PC-3M-1E8 cell line by SRB assay.

On to `C=CC(C)(CC/C=C(/CO)C(=O)O[C@H]1CC2(C(=O)O[C@@H]3O[C@H](CO)[C@@H](O)[C@H](O)[C@@H]3O[C@H]3O[C@H](C)[C@@H](O[C@H]4O[C@H](CO)[C@@H](O)[C@@H]4O)[C@H](O[C@H]4O[C@@H](CO)[C@H](O)[C@@H](O)[C@@H]4O)[C@@H]3O)C(CC1(C)C)C1=CCC3C4(C)CC[C@H](O[C@@H]5O[C@H](CO[C@H]6O[C@@H](C)[C@@H](O)[C@@H](O)[C@@H]6O[C@H]6OC[C@H](O)[C@@H](O)[C@@H]6O)[C@@H](O)[C@H](O)[C@H]5NC(C)=O)C(C)(C)C4CCC3(C)[C@]1(C)C[C@H]2O)O[C@H]1OC[C@H](O)[C@@H](O)[C@@H]1O` (stereo not given in full) [JULIBROSIDE J30], for which the Inhibition in experiment [1] turned out to be 92.19%; in [2], 75.96%; in [3], 46.66%; in experiment [4], 75.68%; in experiment [5] it was 91.65%; in [6] it was 57.49%. In addition, the Inhibition is listed as 25.59% in experiment [7], 61.87% in experiment [8] and 84.98% in experiment [9].
For the molecule `COc1cccc2c1C(=O)c1c(O)c3c(c(O)c1C2=O)C[C@@](O)(C(=O)CO)C[C@@H]3O[C@H]1C[C@H](N)[C@H](O)[C@H](C)O1` [DOXORUBICIN], the values for the Inhibition in [1], in experiment [2] and in experiment [8] were 76.96%, 91.61% and 51.26%, respectively.
For `C=C[C@@](C)(CC/C=C(\CO)C(=O)O[C@H]1C[C@]2(C(=O)O[C@@H]3O[C@H](CO)[C@@H](O)[C@H](O)[C@H]3O[C@@H]3O[C@@H](C)[C@H](O[C@@H]4O[C@@H](CO)[C@H](O)[C@H]4O)[C@@H](O[C@@H]4O[C@H](CO)[C@@H](O)[C@H](O)[C@H]4O)[C@H]3O)[C@H](O)C[C@]3(C)C(=CC[C@@H]4[C@@]5(C)CC[C@H](O[C@@H]6O[C@H](CO[C@@H]7O[C@H](C)[C@H](O)[C@H](O)[C@H]7O[C@@H]7OC[C@@H](O)[C@H](O)[C@H]7O)[C@@H](O)[C@H](O)[C@H]6NC(C)=O)C(C)(C)[C@@H]5CC[C@]43C)[C@@H]2CC1(C)C)O[C@@H]1O[C@H](C)[C@@H](O)[C@H](O)[C@H]1O` [JULIBROSIDE J29], the Inhibition in experiment [1] was found to be 87.75%; in [2], 81.4%; in experiment [3], 52.9%; in [4] it was 84.47%; in experiment [5], 94.9%; in experiment [6], 67.14%. Besides, the Inhibition in experiment [7] stood at 25.35%; in experiment [8], 50.37%; in [9], 85.37%.
For the molecule `C=CC(C)(CC/C=C(/CO)C(=O)O[C@H]1CC2(C(=O)O[C@@H]3O[C@H](CO)[C@@H](O)[C@H](O)[C@@H]3O[C@H]3O[C@H](C)[C@@H](O[C@H]4O[C@H](CO)[C@@H](O)[C@@H]4O)[C@H](O[C@H]4O[C@@H](CO)[C@H](O)[C@@H](O)[C@@H]4O)[C@@H]3O)C(CC1(C)C)C1=CCC3C4(C)CC[C@H](O[C@@H]5O[C@H](CO[C@H]6O[C@@H](C)[C@@H](O)[C@@H](O)[C@@H]6O[C@H]6OC[C@H](O)[C@@H](O)[C@@H]6O)[C@@H](O)[C@H](O)[C@H]5OC5O[C@H](CO)[C@@H](O)[C@H](O)[C@H]5O)C(C)(C)C4CCC3(C)[C@]1(C)C[C@H]2O)O[C@H]1O[C@@H](C)[C@H](O)[C@@H](O)[C@@H]1O` (stereo not given in full) [JULIBROSIDE J31], the Inhibition in experiment [1] was 64.33%; in [2], 94.71%; in experiment [3] it was 15.16%; in [4], 80.41%; in experiment [5], 83.48%; in experiment [6], 46.61%. For the same molecule, the Inhibition in experiment [7] is 39.33%; in [8], 44.34%; in experiment [9], 80.85%.

Broadly, the Inhibition is the percentage by which the read-out fell short of the control. A lower Inhibition goes with little suppression.
